Where two headings read alike, the source gives them in different places.
Key:
Folr1^−/− embryos = conditions: maternal supplementation, dose dependent ("tunable"); cited from earlier work
[1] = tested on: neural tube defects (NTDs); conditions: periconceptional intake of supplemental folic acid, some populations; cited from earlier work
Amt null embryos = conditions: maternal supplementation; cited from earlier work
Mthfd1l^z/z embryos [2] = conditions: for Crown-rump length: E15.5
From the text: Mice. All protocols used within this study were approved by the Institutional Animal Care and Use Committee of The University of Texas at Austin and conform to the National Institutes of Health Guide for the Care and Use of Laboratory Animals. All mice were maintained on a C57Bl/6 genetic background. Mice harboring a floxed conditional knockout cassette between exons 4 and 6 of Mthfd1l were obtained from the Wellcome Trust Sanger Institute (EUCOMM ID 37226). Mice carrying the floxed Mthfd1l allele were mated to mice expressing Cre recombinase under control of the E2a promoter (E2a-Cre) (Lakso M, et al. (1996) Proc. Natl. Acad. Sci. U.S.A 93:5860-5865) to generate heterozygous Mthfd1l^z/+ embryos lacking exon 5 and the neomycin resistance cassette (FIG. 2A). All mice were given ad libitum access to water and standard mouse chow (LabDiet 5K67).
Maternal Supplementation with Calcium Formate. Mthfd1l^z/+ matings were set up in a cage equipped with a water bottle containing 0.0096M, 0.019M, 0.056M or 0.096M calcium formate. The females had access to the supplemented water at least one day before observation of the plug. These concentrations were calculated to deliver 250, 500, 1500 or 2500 mg calcium formate/kg/day, respectively, based on an average water intake of 5 mL per day for a 25 g C57BL/6 mouse (Green EL ed (1966) Biology of the Laboratory Mouse (Dover Publications, Inc., New York), 2nd Ed, p 706). The effect of formate supplementation was analyzed by a two-tailed T-test for crown-rump length
Pregnant dams were administered calculated doses of 250-2500 mg/kg/day.

Mthfd1l^z/z embryos [3] = experiment: Maternal supplementation with sodium formate, Mthfd1l^z/+ matings; assay type: in vivo, mouse
Description: Maternal Supplementation with Sodium Formate.
Because deletion of Mthfd1l is expected to result in loss of mitochondrial formate production, experiments were conducted to determine if maternal formate supplementation would improve development of Mthfd1l^z/z embryos. Pregnant dams were given ad libitum access to water containing sodium formate to achieve a calculated dose of 5000 or 7500 mg sodium formate/kg/day; controls were given water without formate. […] When dams were supplemented with 5000 mg/kg/day sodium formate, 4 Mthfd1l^+/+, 14 Mthfd1l^z/+, and 8 Mthfd1l^z/z embryos were obtained from 3 litters between E15.5-18.5. […] Next, the morphology of E10.5-E15.5 embryos from dams supplemented with 7500 mg/kg/day sodium formate was examined, obtaining 10 Mthfd1l^+/+ embryos, 31 Mthfd1l^z/+ embryos and 14 Mthfd1l^z/z embryos from 6 litters, again conforming to the expected Mendelian ratio (p=0.48). […] Importantly, 6 of the 14 Mthfd1l^z/z embryos were dissected from dams at E13.5 or E15.5, whereas no surviving Mthfd1l^z/z embryos were observed after E12.5 from unsupplemented dams. While supplemented versus non-supplemented embryos were not compared after E12.5 due to lethality of the unsupplemented embryos, formate supplementation partially rescued the growth defect in Mthfd1l^z/z embryos (FIGS. 5A, 5B). […] Supplementation had no significant effect on crown-rump length of wild-type embryos (5.9±0.2 mm).

[4] = 250 mg/kg, of 6 Mthfd1l^z/z embryos
[5] = 250 mg/kg, of 6 Mthfd1l^z/z embryos (Table 2)
[6] = 250 mg/kg, of 6 Mthfd1l^z/z embryos (Table 3)
[7] = 500 mg/kg, of 11 Mthfd1l^z/z embryos
[8] = 500 mg/kg, of 11 Mthfd1l^z/z embryos (Table 2)
[9] = 500 mg/kg, of 11 Mthfd1l^z/z embryos (Table 3)
[10] = 1500 mg/kg, Mthfd1l^z/z embryos
[11] = 1500 mg/kg, of 13 Mthfd1l^z/z embryos
[12] = 1500 mg/kg, of 13 Mthfd1l^z/z embryos (Table 2)
[13] = 1500 mg/kg, of 13 Mthfd1l^z/z embryos (Table 3)
[14] = 2500 mg/kg, Mthfd1l^z/z embryos
[15] = 2500 mg/kg, of 15 Mthfd1l^z/z embryos
[16] = 2500 mg/kg, of 15 Mthfd1l^z/z embryos (Table 2)
[17] = 2500 mg/kg, of 15 Mthfd1l^z/z embryos (Table 3)
[18] = 3500 mg/kg, Mthfd1l^z/z embryos
[19] = 3500 mg/kg, of 10 Mthfd1l^z/z embryos
[20] = 3500 mg/kg, of 10 Mthfd1l^z/z embryos (Table 2)
[21] = 3500 mg/kg, of 10 Mthfd1l^z/z embryos (Table 3)
[22] = dams 5000 mg/kg/day sodium formate in water, 3 litters, E15.5-18.5, distribution vs Mendelian p=0.50
[23] = dams 7500 mg/kg/day sodium formate, 6 litters, E10.5-E15.5, vs Mendelian p=0.48
[24] = embryos lacking Mthfd1l, maternal supplementation

## Nc1nc(=O)c2c([nH]1)NCC(CNc1ccc(C(=O)N[C@@H](CCC(=O)O)C(=O)O)cc1)N2C=O (mixture of isomers) [5-formyl-THF]
Folr1^−/− embryos
  rescue of Folr1 knockout embryonic folate deficiency: can be rescued

## Nc1nc2ncc(CNc3ccc(C(=O)NC(CCC(=O)O)C(=O)O)cc3)nc2c(=O)[nH]1 (stereo in doubt) [folic acid, pteroyl-L-glutamic acid]
[1]
  reduction of the incidence of NTDs: ≤ 70%
Amt null embryos
  neurulation in Amt null embryos: no effect

## O=C[O-].O=C[O-].[Ca+2] [calcium formate]
Mthfd1l^z/z embryos [2]; 250 mg/kg, Mthfd1l^z/z embryos
  NTD, phenotype as a percentage: 0.1667 percentage
  no defect observed, phenotype as a percentage: 0 percentage
  orofacial defect and NTD, phenotype as a percentage: 0.1667 percentage
  orofacial defect, phenotype as a percentage: 0.6667 percentage
Mthfd1l^z/z embryos [2]; [4]
  no defect observed (number of embryos): 0
  orofacial defect and NTD (number of embryos): 1
Mthfd1l^z/z embryos [2]; [5]
  number with NTD: 2
  number with facial defect: 4
Mthfd1l^z/z embryos [2]; [6]
  NTD (number of embryos): 1
  orofacial defect (number of embryos): 4
Mthfd1l^z/z embryos [2]; 500 mg/kg, Mthfd1l^z/z embryos
  NTD, phenotype as a percentage: 0 percentage
  no defect observed, phenotype as a percentage: 0.2727 percentage
  orofacial defect and NTD, phenotype as a percentage: 0 percentage
  orofacial defect, phenotype as a percentage: 0.7273 percentage
Mthfd1l^z/z embryos [2]; [7]
  no defect observed (number of embryos): 3
  orofacial defect and NTD (number of embryos): 0
Mthfd1l^z/z embryos [2]; [8]
  number with NTD: 0
  number with facial defect: 8
Mthfd1l^z/z embryos [2]; [9]
  NTD (number of embryos): 0
  orofacial defect (number of embryos): 8
Mthfd1l^z/z embryos [2]; [10]
  NTD, phenotype as a percentage: 0.07692 percentage
  no defect observed, phenotype as a percentage: 0.6154 percentage
  orofacial defect and NTD, phenotype as a percentage: 0 percentage
  orofacial defect, phenotype as a percentage: 0.3077 percentage
Mthfd1l^z/z embryos [2]; [11]
  no defect observed (number of embryos): 8
  orofacial defect and NTD (number of embryos): 0
Mthfd1l^z/z embryos [2]; [12]
  number with NTD: 1
  number with facial defect: 4
Mthfd1l^z/z embryos [2]; [13]
  NTD (number of embryos): 1
  orofacial defect (number of embryos): 4
Mthfd1l^z/z embryos [2]; [14]
  NTD, phenotype as a percentage: 0.3333 percentage
  no defect observed, phenotype as a percentage: 0.6667 percentage
  orofacial defect and NTD, phenotype as a percentage: 0 percentage
  orofacial defect, phenotype as a percentage: 0 percentage
Mthfd1l^z/z embryos [2]; [15]
  no defect observed (number of embryos): 10
  orofacial defect and NTD (number of embryos): 0
Mthfd1l^z/z embryos [2]; [16]
  number with NTD: 5
  number with facial defect: 0
Mthfd1l^z/z embryos [2]; [17]
  NTD (number of embryos): 5
  orofacial defect (number of embryos): 0
Mthfd1l^z/z embryos [2]; [18]
  NTD, phenotype as a percentage: 0.1 percentage
  no defect observed, phenotype as a percentage: 0.6 percentage
  orofacial defect and NTD, phenotype as a percentage: 0 percentage
  orofacial defect, phenotype as a percentage: 0.3 percentage
Mthfd1l^z/z embryos [2]; [19]
  no defect observed (number of embryos): 6
  orofacial defect and NTD (number of embryos): 0
Mthfd1l^z/z embryos [2]; [20]
  number with NTD: 1
  number with facial defect: 3
Mthfd1l^z/z embryos [2]; [21]
  NTD (number of embryos): 1
  orofacial defect (number of embryos): 3
Mthfd1l^z/z embryos [2]; 250-2500 mg/kg/day, embryos dissected at E15.5
  growth of Mthfd1l^z/z embryos with increasing maternal intake: dose-response effect
Mthfd1l^z/z embryos [2]; Mthfd1l^+/+ embryos, 250 mg/kg calcium formate to dams
  Crown-rump length: 1.39 + 0.1 cm
Mthfd1l^z/z embryos [2]; Mthfd1l^+/+ embryos, 500 mg/kg calcium formate to dams
  Crown-rump length: 1.32 + 0.17 cm
Mthfd1l^z/z embryos [2]; Mthfd1l^+/+ embryos, 1500 mg/kg calcium formate to dams
  Crown-rump length: 1.46 + 0.2 cm
Mthfd1l^z/z embryos [2]; Mthfd1l^+/+ embryos, 2500 mg/kg calcium formate to dams
  Crown-rump length: 1.43 + 0.07 cm
Mthfd1l^z/z embryos [2]; Mthfd1l^+/+ embryos, 3500 mg/kg calcium formate to dams
  Crown-rump length: 1.34 + 0.2 cm
Mthfd1l^z/z embryos [2]; Mthfd1l^z/+ embryos, 250 mg/kg calcium formate to dams
  Crown-rump length: 1.38 + 0.1 cm
Mthfd1l^z/z embryos [2]; Mthfd1l^z/+ embryos, 500 mg/kg calcium formate to dams
  Crown-rump length: 1.36 + 0.21 cm
Mthfd1l^z/z embryos [2]; Mthfd1l^z/+ embryos, 1500 mg/kg calcium formate to dams
  Crown-rump length: 1.46 + 0.1 cm
Mthfd1l^z/z embryos [2]; Mthfd1l^z/+ embryos, 2500 mg/kg calcium formate to dams
  Crown-rump length: 1.39 + 0.09 cm
Mthfd1l^z/z embryos [2]; Mthfd1l^z/+ embryos, 3500 mg/kg calcium formate to dams
  Crown-rump length: 1.33 + 0.1 cm
Mthfd1l^z/z embryos [2]; Mthfd1l^z/z embryos, 250 mg/kg calcium formate to dams
  Crown-rump length: 1.05 ± 0.1 cm
Mthfd1l^z/z embryos [2]; Mthfd1l^z/z embryos, 500 mg/kg calcium formate to dams
  Crown-rump length: 1.03 ± 0.06 cm
Mthfd1l^z/z embryos [2]; Mthfd1l^z/z embryos, 1500 mg/kg calcium formate to dams
  Crown-rump length: 1.17 ± 0.13 cm
Mthfd1l^z/z embryos [2]; Mthfd1l^z/z embryos, 2500 mg/kg calcium formate to dams
  Crown-rump length: 1.20 ± 0.04 cm
Mthfd1l^z/z embryos [2]; Mthfd1l^z/z embryos, 3500 mg/kg calcium formate to dams
  Crown-rump length: 1.1 ± 0.2 cm
Mthfd1l^z/z embryos [2]; Table 3 and FIG. 6, mouse model
  NTD and orofacial defect phenotypes: improves NTD and orofacial defect phenotypes in a dose-dependent manner

## CSCC[C@H](N)C(=O)O [methionine]
Amt null embryos
  neurulation in Amt null embryos: significantly improves neurulation

## O=C[O-].[Na+] [sodium formate]
Mthfd1l^z/z embryos [3]; 7500 mg sodium formate/kg/day, Mthfd1l^z/z embryos at E11.5 vs unsupplemented dams
  growth of embryos (words, FIG. 5): improved growth
Mthfd1l^z/z embryos [3]; 7500 mg/kg/day sodium formate, of 14 Mthfd1l^z/z embryos
  number of Mthfd1l^z/z embryos with exencephaly: 3
Mthfd1l^z/z embryos [3]; 7500 mg/kg/day sodium formate, of 14 Mthfd1l^z/z embryos, none survive after E12.5 unsupplemented
  number of Mthfd1l^z/z embryos dissected at E13.5 or E15.5 (survival past E12.5): 6
Mthfd1l^z/z embryos [3]; 7500 mg/kg/day sodium formate, of 14 Mthfd1l^z/z embryos, p=0.028 vs unsupplemented nulls
  number of Mthfd1l^z/z embryos with normal neural tube closure: 11
Mthfd1l^z/z embryos [3]; [22]
  number of Mthfd1l^+/+ embryos obtained: 4
  number of Mthfd1l^z/+ embryos obtained: 14
Mthfd1l^z/z embryos [3]; dams 5000 mg/kg/day sodium formate in water, 3 litters, E15.5-18.5, distribution vs Mendelian p=0.50, 0 from unsupplemented dams
  number of Mthfd1l^z/z embryos obtained: 8
Mthfd1l^z/z embryos [3]; [23]
  number of Mthfd1l^+/+ embryos obtained: 10
  number of Mthfd1l^z/+ embryos obtained: 31
  number of Mthfd1l^z/z embryos obtained: 14
Mthfd1l^z/z embryos [3]; [24]
  growth defect: partially rescue the growth defect
  incidence of NTDs: decrease the incidence of NTDs
Mthfd1l^z/z embryos [3]; formate supplemented Mthfd1l^z/z E11.5 embryos, p<0.01 vs unsupplemented (3.6±0.3)
  Crown-rump length: 5.0±0.1 mm
Mthfd1l^z/z embryos [3]; wild-type embryos, supplementation had no significant effect
  Crown-rump length: 5.9±0.2 mm

Source: patent US9895328B2, “Calcium formate as a supplement to prevent neural tube defects” (BOARD OF REGENTS, THE UNIVERSITY OF TEXAS SYSTEM, priority 2013, dated 2018)
